According to paper PMC6010069, “The RFK catalytic cycle of the pathogen Streptococcus pneumoniae shows species-specific features in prokaryotic FMN synthesis” (Journal of Enzyme Inhibition and Medicinal Chemistry, 2018):
Like-named read-outs stand apart in the source and are kept apart here.

How the values were obtained:
SpnFADS [1] = target: T1, SpnFADS (Streptococcus pneumoniae, UniProt A0A0H2UPY5); assay: stopped-flow flavin fluorescence, Kd from koff and kon; type: binding
T1 construct: gene SP_1110; full-length bifunctional enzyme from pET-15b in E. coli BL21 Star (DE3), His6-tag removed; riboflavin kinase activity of the C-terminal module; functional form monomer
T1 sequence (A0A0H2UPY5 1-305): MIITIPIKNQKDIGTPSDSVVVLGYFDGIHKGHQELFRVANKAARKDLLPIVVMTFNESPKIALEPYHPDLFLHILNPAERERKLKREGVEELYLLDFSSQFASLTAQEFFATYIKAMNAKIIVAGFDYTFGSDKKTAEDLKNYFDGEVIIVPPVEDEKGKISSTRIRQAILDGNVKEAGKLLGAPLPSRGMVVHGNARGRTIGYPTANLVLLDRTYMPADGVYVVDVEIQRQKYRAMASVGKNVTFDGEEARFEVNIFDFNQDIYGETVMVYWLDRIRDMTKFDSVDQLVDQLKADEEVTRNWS
Excerpt: stopped-flow flavin fluorescence, Kd from koff and kon on SpnFADS

SpnFADS [2] = target: T1, SpnFADS; assay: biochemical; set-up: Isothermal titration calorimetry, ligand titrated into free or ligand-pre-bound SpnFADS, 20 °C, PIPES pH 7.0
Procedure: We performed isothermal titration calorimetry (ITC) assays to elucidate both the ligand binding order and the thermodynamic inhibition produced by the binding of the FLV and ANP ligands. Titrations were performed on an AutoITC200 (MicroCal, Malvern, UK) thermostated at 20 °C, as previously described. Approximately 25 µM SpnFADS contained in a 200 µL-cell was titrated with solutions of 180 µM RF, 250 µM FMN, or 350 µM ATP or ADP. Additionally, titrations with ANP ligands into mixtures that contain the protein pre-bound to FLV ligands were performed, as well as titrations with FLV ligands into pre-bound SpnFADS:ANP complexes. The titrations were conducted through 19 stepwise injections of 2 µL of the titrating ligand to the calorimetric cell, as previously described[21]^,[26]. Both the ligands and the protein were dissolved in 20 mM PIPES, pH 7.0, either in presence of 0.8 mM MgCl2 or in absence of this cation, and degassed before the titration. The enthalpy change (ΔH), the association constant (Ka), and the binding stoichiometry (N) were obtained through non-linear least squares regression of the data using a homemade fitting routine corresponding to a model for one or two independent binding sites, implemented in Origin 7.0 (OriginLab, Northampton, MA, USA), as previously described[21]^,[26]. The Gibbs free energy (ΔG), the entropic contribution (−TΔS), and the dissociation constant (Kd) were obtained using well-known thermodynamic equations. Cooperativity constants (α) between ANP and FLV ligands were obtained as previously described[23]^,[27]^,[28]. Particular titrations with ANP ligands into mixtures of the protein and 100 µM FLV were fit to a homemade fitting routine corresponding to a model that considers the influence of the FLV ligand in the protein binding affinity for the ANP ligand[27]^,[28]. Experiments were performed in triplicate. The errors considered in the measured parameters (±15% in Kd and Ka values, ±0.3 kcal mol^−1 in ΔG, ΔH, and −TΔS and ±20% in α) were assumed to be larger than the standard deviation between replicates and the numerical error after fitting analysis.

SpnFADS [3] = target: T1, SpnFADS; assay: RFK activity, HPLC of flavins, global Lineweaver-Burk fit; type: biochemical
Excerpt: (§1) RFK activity, HPLC of flavins, global Lineweaver-Burk fit on SpnFADS

[4] = substrate: Cc1cc2nc3c(=O)[nH]c(=O)nc-3n(C[C@H](O)[C@H](O)[C@H](O)CO)c2cc1C; assay: as above; type: biochemical, Streptococcus pneumoniae; settings: co-substrate ATP, 20 mM PIPES pH 7.0, 0.8 mM MgCl2, 25 °C
Excerpt: as §1

[5] = substrate: Nc1ncnc2c1ncn2[C@@H]1O[C@H](COP(=O)(O)OP(=O)(O)OP(=O)(O)O)[C@@H](O)[C@H]1O; assay: as above; type: biochemical, Streptococcus pneumoniae; settings: co-substrate RF, 20 mM PIPES pH 7.0, 0.8 mM MgCl2, 25 °C
Excerpt: as §1

[6] = enzyme pre-bound to ADP, 0.8 mM MgCl2
[7] = enzyme pre-bound to ADP, no MgCl2, read-out: Kd (μM), 0.0 mM MgCl2

Molecule: Cc1cc2nc3c(=O)[nH]c(=O)nc-3n(C[C@H](O)[C@H](O)[C@H](O)CO)c2cc1C [RF, riboflavin]
- Kd (SpnFADS [1]): 570 ± 140 nM
- Kd (SpnFADS [2]; [6]): 1.6 µM
- Kd (SpnFADS [2]; [7]): 0.3 µM
- Kd (SpnFADS [2]; enzyme pre-bound to ATP, no MgCl2, read-out: Kd (μM), 0.0 mM MgCl2): 2.5 µM

Molecule: Cc1cc2nc3c(=O)[nH]c(=O)nc-3n(C[C@H](O)[C@H](O)[C@H](O)COP(=O)(O)O)c2cc1C [FMN, flavin mononucleotide]
- Kd (SpnFADS [1]): 760 ± 240 nM
- Ki (SpnFADS [3]; read-out: Ki^FMN): 1300 ± 400 nM
- Kd (SpnFADS [2]; [6]): 2.3 µM
- Kd (SpnFADS [2]; [7]): 7.9 µM
- Kd (SpnFADS [2]; enzyme pre-bound to ATP, 0.8 mM MgCl2): 1.6 µM

Molecule: Nc1ncnc2c1ncn2[C@@H]1O[C@H](COP(=O)(O)OP(=O)(O)O)[C@@H](O)[C@H]1O [ADP, adenosine 5′-diphosphate]
- Ki (SpnFADS [3]; read-out: Ki^ADP): 130000 ± 16000 nM

B1: SpnFADS (Streptococcus pneumoniae TIGR4) (protein)
chain: T1 sequence (A0A0H2UPY5 1-305)
notes: full-length bifunctional enzyme from pET-15b in E. coli BL21 Star (DE3), His6-tag removed; riboflavin kinase activity of the C-terminal module; functional form monomer
- Km [4]: 1.2 ± 0.3 µM
- kcat [4]: 0.917 ± 0.033 s⁻¹
- Km [5]: 75 ± 7 µM
- kcat [5]: 0.917 ± 0.033 s⁻¹
